Laboratory results as given in patent US20040009534A1, “Protein analysis” (DYAX CORPORATION, priority 2002, published 2004).
Where two headings read alike, the source gives them in different places.

Key:
[1] = target: Goat albumin; experiment: Dissociation constants (KD) against a panel of albumins; type: binding
From the text: (§1) The binding properties of a ligand that binds a serum protein can be readily assessed using various assay formats. For example, the binding property of a ligand can be measured in solution by fluorescence anisotropy, which provides a convenient and accurate method of determining a dissociation constant (KD) of a binding moiety for a serum albumin from one or more different species. In one such procedure, a binding moiety described herein is labeled with fluorescein. The fluorescein-labeled binding moiety may then be mixed in wells of a multi-well assay plate with various concentrations of a particular species of serum albumin. Fluorescence anisotropy measurements are then carried out using a fluorescence polarization plate reader. The binding interaction between a serum protein and a non-covalently associated compound can be similarly characterized. Other solution measures for studying binding properties include fluorescence resonance energy transfer (FRET) and NMR.

[2] = target: T1, HSA (Homo sapiens, UniProt P02768); experiment: HSA binding test of analytical peptide-Sepharose affinity columns; conditions: 1 mg HSA injection; for Total Capacity: 0.35 ml column
T1 construct: SwissProt entry: P02768 and/or the following mature
Protocol: The immobilization reaction was initiated by the addition of diisopropylethylamine to 2% (vol/vol). After 4 hours of slow mixing on a shaker table at room temperature, the reaction was quenched by the addition of an equal volume of 0.5 M hydroxylamine, pH 8, in water. For those peptides with ivDde-protected internal lysines, the hydroxylamine quench treatment also removed the ivDde-protecting group. To allow for complete protecting group removal, the quenched reaction was allowed to incubate overnight at room temperature. Once quenched and deprotected, the immobilized peptide-Sepharose resin was washed at least 3 times with water to remove solvent and unbound peptide. Non-specifically bound peptide was eluted off the resin by washing the resin at least three times in 30 mM phosphoric acid, pH 2. Since the NHS-Sepharose resin surface becomes negatively charged after hydrolysis, an acidic wash neutralizes the surface and removes any peptides bound non-covalently to the surface via electrostatic interactions. After washing, the resin was resuspended in water as a 50% v/v mixture. A 50 μl aliquot was used to determine the ligand density on the resin by quantitative amino acid analysis. Finally, the resin slurry was packed into 0.35 ml OMNIFIT™ glass columns (3 mm×50 mm) for analytical testing.
Each peptide was immobilized at high density on NHS-Sepharose resin using the procedure outlined above. The peptides were immobilized via a C-terminal lysine. […] Each column was tested for HSA binding (1 mg injection) in binding buffer—3 mM sodium phosphate, 0.1% Tween-20 detergent, pH 6.2.
One milliliter of albumin solution was passed through each column (0.35 ml) previously equilibrated in equilibration buffer. The columns were washed with the same equilibration buffer and then eluted with 100 mM Tris, pH 9.1 (flow rate, 0.5 ml/min for all steps). The column chromatography was carried out using a BIO-RAD BIOLOGIC™ monitoring system (Hercules, Calif.) throughout this testing with absorbance monitoring at 280 nm.

[3] = target: T2, chicken ovalbumin (Gallus gallus, UniProt P01012); experiment: Dissociation constants (KD) against a panel of albumins, negative control; type: binding; conditions: both sets of buffers
T2 sequence (P01012 1-386): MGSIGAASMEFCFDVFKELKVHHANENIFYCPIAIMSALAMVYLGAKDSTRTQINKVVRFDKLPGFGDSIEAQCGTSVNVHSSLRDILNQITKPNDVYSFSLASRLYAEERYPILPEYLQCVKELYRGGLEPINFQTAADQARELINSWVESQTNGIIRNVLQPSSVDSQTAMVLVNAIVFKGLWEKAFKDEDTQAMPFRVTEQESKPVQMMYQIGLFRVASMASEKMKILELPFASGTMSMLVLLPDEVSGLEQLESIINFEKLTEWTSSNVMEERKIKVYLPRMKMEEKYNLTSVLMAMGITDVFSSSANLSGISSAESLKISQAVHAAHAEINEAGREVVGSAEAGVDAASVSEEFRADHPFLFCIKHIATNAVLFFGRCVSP
From the text: as §1
Chicken ovalbumin is not homologous to HSA as determined by sequence alignment analysis.

[4] = target: T1, HSA; experiment: Dissociation constants (KD) against a panel of albumins; type: binding; conditions: phosphate, pH 6.2, O M NaCl
From the text: as §1

[5] = target: murine serum albumin (MSA) (Mus musculus, UniProt P07724); experiment: as above; type: binding
From the text: as §1

[6] = target: human IgG1; conditions: read-out: dissociation constants (KD), cited from earlier work
[7] = target: human IgG3; conditions: human IgG3, pH 5.7; read-out: dissociation constants (KD); cited from earlier work
[8] = tested on: Fc protein; conditions: from buffer solution and tobacco extract; cited from earlier work
[9] = fraction: Elution (100 mM Tris, pH 9.1)

Chain of human IgG1 (P01857 1-330 isoform P01857-1): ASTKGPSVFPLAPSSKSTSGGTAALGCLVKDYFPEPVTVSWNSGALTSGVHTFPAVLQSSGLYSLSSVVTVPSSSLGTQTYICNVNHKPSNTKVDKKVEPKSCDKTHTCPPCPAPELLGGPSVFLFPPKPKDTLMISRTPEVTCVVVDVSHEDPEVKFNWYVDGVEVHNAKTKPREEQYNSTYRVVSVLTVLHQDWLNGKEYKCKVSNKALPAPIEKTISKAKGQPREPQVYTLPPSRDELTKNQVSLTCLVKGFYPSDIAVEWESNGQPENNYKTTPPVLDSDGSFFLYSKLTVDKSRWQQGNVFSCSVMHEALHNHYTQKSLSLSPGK
T1 sequence (P02768 25-609): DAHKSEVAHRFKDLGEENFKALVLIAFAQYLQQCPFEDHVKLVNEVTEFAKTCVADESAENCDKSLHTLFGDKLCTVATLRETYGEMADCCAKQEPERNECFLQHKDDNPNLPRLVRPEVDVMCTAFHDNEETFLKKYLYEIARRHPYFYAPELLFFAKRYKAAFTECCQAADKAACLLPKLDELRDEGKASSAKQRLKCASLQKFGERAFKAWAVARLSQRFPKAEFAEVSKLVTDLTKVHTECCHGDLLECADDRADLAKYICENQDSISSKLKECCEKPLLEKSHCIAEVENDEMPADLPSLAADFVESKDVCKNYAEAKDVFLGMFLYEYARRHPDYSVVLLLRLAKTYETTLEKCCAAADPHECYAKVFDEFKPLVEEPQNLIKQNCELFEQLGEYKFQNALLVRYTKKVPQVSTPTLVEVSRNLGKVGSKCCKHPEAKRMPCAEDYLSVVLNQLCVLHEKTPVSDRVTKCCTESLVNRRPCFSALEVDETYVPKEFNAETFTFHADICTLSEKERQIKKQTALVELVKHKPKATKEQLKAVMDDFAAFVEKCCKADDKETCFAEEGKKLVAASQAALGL
Chain of murine serum albumin (MSA) (P07724 25-608): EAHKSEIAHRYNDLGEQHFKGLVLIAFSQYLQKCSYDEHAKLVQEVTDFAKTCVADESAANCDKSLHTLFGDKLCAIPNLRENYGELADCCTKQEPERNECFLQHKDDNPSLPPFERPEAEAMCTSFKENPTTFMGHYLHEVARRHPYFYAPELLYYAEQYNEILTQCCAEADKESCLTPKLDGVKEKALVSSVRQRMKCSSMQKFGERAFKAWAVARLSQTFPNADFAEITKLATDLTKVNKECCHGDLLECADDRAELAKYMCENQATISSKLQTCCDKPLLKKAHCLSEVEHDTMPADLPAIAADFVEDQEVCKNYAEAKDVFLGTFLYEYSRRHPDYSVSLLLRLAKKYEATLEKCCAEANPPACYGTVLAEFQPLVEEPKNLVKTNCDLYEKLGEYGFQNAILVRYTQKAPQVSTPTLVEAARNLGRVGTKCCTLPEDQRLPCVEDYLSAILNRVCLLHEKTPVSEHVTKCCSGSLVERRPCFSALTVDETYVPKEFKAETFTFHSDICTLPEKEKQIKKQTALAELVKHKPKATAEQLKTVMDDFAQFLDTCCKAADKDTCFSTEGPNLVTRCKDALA
Chain of human IgG3 (P01860 1-377 isoform P01860-1): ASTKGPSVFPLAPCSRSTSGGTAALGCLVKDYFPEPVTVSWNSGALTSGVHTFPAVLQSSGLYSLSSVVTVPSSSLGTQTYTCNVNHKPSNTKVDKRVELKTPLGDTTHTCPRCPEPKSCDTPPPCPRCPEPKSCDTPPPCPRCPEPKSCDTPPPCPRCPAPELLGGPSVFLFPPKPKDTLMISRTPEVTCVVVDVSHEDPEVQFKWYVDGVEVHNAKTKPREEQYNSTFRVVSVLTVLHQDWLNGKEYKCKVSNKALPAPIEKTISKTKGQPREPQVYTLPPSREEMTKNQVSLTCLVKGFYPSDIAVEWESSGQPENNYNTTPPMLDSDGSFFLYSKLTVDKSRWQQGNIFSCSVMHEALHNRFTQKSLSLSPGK

Kd ([1]; PBS, pH 7.4, […] NaCl) [µM] | Kd ([1]; phosphate, pH 6.2, O M NaCl) [µM] | Total Capacity [2] [mg/mL] | μg HSA [2, 9] [µg] | μg HSA ([2]; fraction: Flow through, pH 6.2) [µg] | Molecule | binding to chicken ovalbumin [3] | Kd ([6]; IgG1, pH 7.4) [µM] | Kd ([6]; human IgG1, pH 5.7) [µM] | further results
23 | 1.6 | >2.7 | 947 | 0 | CC[C@H](C)[C@@H]1NC(=O)[C@H](CCCNC(=N)N)NC(=O)[C@H](CC(=O)O)NC(=O)[C@@H](NC(=O)[C@H](Cc2ccccc2)NC(=O)[C@H](Cc2c[nH]c3ccccc23)NC(=O)[C@H](Cc2ccccc2)NC(=O)[C@H](CC(=O)O)NC(=O)CNC(=O)[C@@H](NC(=O)CNC(=O)[C@H](CCC(=O)O)NC(=O)[C@H](C)NC(C)=O)[C@@H](C)O)CSSC[C@@H](C(=O)N[C@@H](CCC(=O)O)C(=O)N[C@@H](Cc2ccccc2)C(=O)N[C@@H](CC(C)C)C(=O)N[C@@H](CC(=O)O)C(=O)N2CCC[C@H]2C(=O)N[C@@H](CCC(=O)O)C(=O)NCC(=O)NCC(=O)NCC(=O)N[C@@H](CCCCN)C(N)=O)NC(=O)[C@H](CC(C)C)NC(=O)[C@H](Cc2c[nH]cn2)NC(=O)[C@H](CCC(N)=O)NC(=O)[C@@H]2CCCN2C(=O)[C@H](Cc2ccc(O)cc2)NC(=O)[C@H](Cc2c[nH]c3ccccc23)NC(=O)[C@H](C)NC1=O [DX-236] | neither peptide showed any significant binding |  |  | 
83 | 95 | >1.1 | 370 | 554 | CC[C@H](C)[C@@H]1NC(=O)[C@H](Cc2c[nH]c3ccccc23)NC(=O)[C@H](CO)NC(=O)[C@H](Cc2ccccc2)NC(=O)[C@H](CCCCN)NC(=O)[C@@H](NC(=O)[C@H](CCSC)NC(=O)[C@H](CC(N)=O)NC(=O)[C@H](CCCNC(=N)N)NC(=O)[C@H](CC(=O)O)NC(=O)CNC(=O)[C@@H](NC(=O)CNC(=O)[C@H](CCC(=O)O)NC(=O)[C@H](C)NC(C)=O)[C@@H](C)O)CSSC[C@@H](C(=O)N[C@@H](C)C(=O)N[C@@H](CCCNC(=N)N)C(=O)N[C@@H](C)C(=O)N[C@@H](CC(=O)O)C(=O)N2CCC[C@H]2C(=O)N[C@@H](CCC(=O)O)C(=O)NCCCCCC(=O)N[C@@H](CCCCN)C(N)=O)NC(=O)[C@H](Cc2ccccc2)NC(=O)[C@H](C)NC(=O)[C@@H]2CCCN2C(=O)[C@H](CO)NC(=O)[C@H](CCCNC(=N)N)NC1=O [DX-321] | neither peptide showed any significant binding |  |  | KD [4]: submicromolar; Kd ([5]; PBS, pH 7.4, 0.14 M NaCl): > 200 µM; Kd ([5]; phosphate, pH 6.2, O M NaCl): > 200 µM
 |  |  |  |  | AGYYWCNYWGLCPDQGTPGPEGGGK [DX254] |  | < 2 | < 0.1 | Kd ([6]; human IgG1, pH 9.3): < 1 µM
 |  |  |  |  | GDDDHCYWFREWFNSECPHGEPGPEGGGK [DX252] |  |  |  | Kd [7]: < 0.1 µM
 |  |  |  |  | GDDHMCVYTTWGELIWCDNHEPGPEGGGK [DX249] |  | < 0.5 | < 0.1 | 
 |  |  |  |  | GDRRACSRDWSGALVWCAGHEPGPEGGGK [DX253] |  |  |  | capture efficiency (quantitative binding of Fc protein) [8]: > 90 % of total load
